Experimental data from patent US9056069B2, “Cancer therapy based on tumor associated antigens derived from cyclin D1” (IMMATICS BIOTECHNOLOGIES GMBH, priority 2010, dated 2015).
“Also recorded” adds a separate entry of the source.

Tests used:
mRCC = assay type: in vivo, human
Text: Some patients received a prior TKI therapy with sunitinib or sorafenib, others a prior cytokine therapy with interferon or interleukin.
Both patient groups were followed up for progression-free survival (PFS) and overall survival (OS).

CTL = conditions: healthy donors, colon cancer and mantle cell lymphoma patients; autologous CD40-activated B cells as APCs; cited from earlier work
[1] = test system: HLA-A*02 positive tumor cells endogenously expressing Cyclin D1; conditions: allo-restricted T cells of HLA-A2-negative donors; cited from earlier work
HLA class-II = test: Binding to HLA class-II; set-up: species or system human

## O=P1(N(CCCl)CCCl)NCCCO1 (stereo not shown) [cyclophosphamide]
mRCC; cyclophosphamide 300 mg/m2 single infusion before vaccination
  effect of prior low-dose cyclophosphamide treatment on outcome of vaccine treatment: further significantly improved the outcome

## LLGATCMFV (listed as Homo sapiens) [CCN-001, cyclin D1-derived peptide, aa 101-109]
CTL
  generation of epitope-specific CTL: could be generated from HLA-A2+ donors
mRCC; all vaccinated patients
  survival of patients responding against CCN-001 versus non-CCN-001-responding patients: significant longer survival; also recorded: survive significantly longer
mRCC; patient group pretreated with cyclophosphamide
  favorable effect of T cell response against CCN-001 on survival: even more evident
[1]
  lysis of tumor cells by T cell clones recognizing the peptide: could lyse HLA-A*02 positive tumor cells endogenously expressing Cyclin D1

## NPPSMVAAGSVVAAV (listed as Homo sapiens) [CCN-003, cyclin D1-derived peptide, aa 198-212]
HLA class-II
  HLA restriction: appears DRB1*0401 restricted
  binding to HLA class-II: binds to HLA class-II
